Assay results from article PMC8596838, “Xylose‐Configured Cyclophellitols as Selective Inhibitors for Glucocerebrosidase” (Chembiochem, 2021).
Read-outs that look alike come from different tables or passages of the source.

Biological target: T1, GBA3 (Homo sapiens, UniProt Q9H227)
T1 construct: expressed in transfected cells; host or cells: HEK293T (GBA/GBA2 KO background for the fluorogenic assay; endogenous-GBA background with GBA2 and GBA3 overexpressed for ABPP and intact-cell assays)
T1 sequence (Q9H227 1-469): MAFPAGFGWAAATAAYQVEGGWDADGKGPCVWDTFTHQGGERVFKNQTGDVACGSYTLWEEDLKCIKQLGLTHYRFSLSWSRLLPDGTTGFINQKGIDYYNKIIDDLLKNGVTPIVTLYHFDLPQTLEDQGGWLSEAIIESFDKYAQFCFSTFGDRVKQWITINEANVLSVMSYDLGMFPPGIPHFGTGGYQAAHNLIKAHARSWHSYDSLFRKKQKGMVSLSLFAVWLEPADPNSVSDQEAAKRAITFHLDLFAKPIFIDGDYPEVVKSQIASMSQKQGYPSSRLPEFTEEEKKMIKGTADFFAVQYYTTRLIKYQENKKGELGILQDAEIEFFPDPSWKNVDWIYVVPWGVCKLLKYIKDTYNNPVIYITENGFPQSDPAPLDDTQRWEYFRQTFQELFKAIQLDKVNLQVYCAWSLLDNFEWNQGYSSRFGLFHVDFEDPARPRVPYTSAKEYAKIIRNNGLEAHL
Test: Fluorogenic substrate enzymatic assay, lysate of GBA/GBA2 KO HEK293T cells overexpressing GBA3
Assay type: biochemical
Settings: for (Ratio) GBA3/GBA: IC50 ratio
Description: Using fluorogenic substrate‐based assays, we determined apparent IC50 values at 30 min incubation time of the xylo‐cyclophellitols in rhGBA, and GBA2 and GBA3 lysates of cells expressing only each of the enzymes specifically.
Enzyme activity assays: All assays were performed with lysates of HEK293T cells or zebrafish larvae in 96‐well plates at 37 °C. Samples were diluted with McIlvaine buffer (150 mM citric acid‐Na2HPO4) to a final volume of 25 μL, at pH appropriate for each enzyme. Assays were performed by incubating the samples with 100 μL 4‐methylumbelliferyl‐β‐D‐glucoside substrates diluted in McIlvaine buffer (with 0.1 % (w/v) bovine serum albumin (BSA)) for a period of 30 min or 3 h. The substrate mixtures used for each enzyme were as follows: GBA, 3.75 mM 4‐MU‐β‐D‐glucopyranoside (Glycosynth, Warrington Cheshire, UK) at pH 5.2, supplemented with 0.2 % (w/v) sodium taurocholate, 0.1 % (v/v) Triton X‐100, 0.1 % (w/v) bovine serum albumin (BSA); GBA2, 3.75 mM 4 MU‐β‐D‐glucopyranoside at pH 5.8; GBA3, 3.75 mM 4‐MU‐β‐D‐glucopyranoside at pH 6.0. After stopping the enzyme reaction with 200 μL 1 M NaOH‐glycine (pH 10.3), 4‐methylumbelliferone fluorescence was measured with a fluorimeter LS55 (Perkin Elmer, Waltham, MA, USA) with λEX 366 nm and λEM 445 nm. Enzyme activities were determined by subtraction of background (measured for incubations without enzyme). IC50 values were determined exactly as earlier described.[36]
The IC50 values were determined using a fluorogenic enzymatic assay. For GBA, 3.16 ng (53 fmol) of rhGBA, (recombinant human GBA, Imiglucerase) obtained from Sanofi Genzyme (Cambridge, MA, USA), was prepared in 12.5 μL McIlvaine buffer (150 mM, pH 5.2) supplemented with 0.1 % (v/v) Triton X‐100, and 0.2 % (w/v) sodium taurocholate, 0.1 % (w/v) bovine serum albumin (BSA). The enzyme was incubated with 12.5 μL of inhibitors diluted in McIlvaine buffer (150 mM, pH 5.2) at 37 °C for 30 min. In the case of GBA2 or GBA3, lysates of GBA/GBA2 KO HEK293T cells overexpressing GBA2 or GBA3, respectively where used. The enzymatic activity of GBA, GBA2 and GBA3 were measured with 4MU‐β‐D‐glucoside substrate as described above.

[1] = incubation time 30 min, enzymatic assay, ±SD, n=3, read-out: In vitro apparent IC50 GBA3

IC50 (30 min incubation time, read-out: apparent IC50 GBA3) | SMILES | (Ratio) GBA3/GBA (in vitro, 30 min) | IC50 [1] | potency against GBA3 compared to unsubstituted xylo-cyclophellitol aziridine 2 (in vitro, 30 min)
– | CN1/C(=C/C=C/C=C/C2=[N+](CCCCCC(=O)NCc3cn(CCCCCCCCN4[C@H]5[C@H](O)[C@@H](O)[C@H](O)C[C@H]54)nn3)c3ccccc3C2(C)C)C(C)(C)c2ccccc21 (stereo partly shown) [ABP 6] | 1561 | 10.1 ± 1 µM | –
– | CN1/C(=C/C=C/C=C/C2=[N+](CCCCCC(=O)NCc3cn(C[C@@H]4[C@@H](O)[C@H](O)[C@@H](O)[C@@H]5O[C@H]45)nn3)c3ccccc3C2(C)C)C(C)(C)c2ccccc21 [ABP 9, reference compound] | 128 | 5.78 ± 0.079 µM | –
> 25 µM | O[C@@H]1[C@@H](O)[C@H](O)C[C@H]2O[C@@H]12 [compound 1, xylo‐cyclophellitol] | >19 | > 50 µM | –
– | O[C@@H]1[C@@H](O)[C@H](O)C[C@H]2N[C@@H]12 [compound 2, β‐D‐xylo‐Cyclophellitol aziridine] | >35 | > 25 µM | –
– | OC[C@@H]1[C@@H](O)[C@H](O)[C@@H](O)[C@@H]2O[C@H]12 [compound 3, cyclophellitol] | 129 | 51.5 ± 4.01 µM | –
– | OC[C@@H]1[C@@H](O)[C@H](O)[C@@H](O)[C@@H]2N[C@H]12 [compound 4, cyclophellitol aziridine, reference compound] | 99 | 33.8 ± 2.43 µM | –
– | [N-]=[N+]=NCCCCCCCCN1[C@H]2[C@H](O)[C@@H](O)[C@H](O)C[C@H]21 (stereo partly shown) [compound 5] | 486 | 0.583 ± 0.202 µM | > 40 fold
